Type in all cases: biochemical
One assay addresses T1, cathepsin K (Homo sapiens, UniProt P43235).
T1 construct: gene CTSK
T1 sequence (P43235 115-329): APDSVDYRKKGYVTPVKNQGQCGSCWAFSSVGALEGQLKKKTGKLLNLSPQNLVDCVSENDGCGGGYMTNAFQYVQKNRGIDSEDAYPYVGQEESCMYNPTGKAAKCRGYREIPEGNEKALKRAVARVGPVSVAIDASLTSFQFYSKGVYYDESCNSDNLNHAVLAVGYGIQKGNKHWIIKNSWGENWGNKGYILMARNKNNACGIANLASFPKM
The assay is described as follows: recombinant enzyme, fluorogenic substrate Cbz-FR-AMC, Morrison plot Ki.

A further assay deals with T2, cathepsin V (Homo sapiens, UniProt O60911).
T2 construct: gene CTSV
The assay is described as above.

In a further assay the target is T3, cathepsin L (Homo sapiens, UniProt P07711).
T3 construct: gene CTSL
The assay is described as follows: recombinant enzyme, fluorogenic substrate Cbz-FR-AMC, Morrison plot Ki (limited activity).

Another assay deals with T4, cathepsin S (Homo sapiens, UniProt P25774).
T4 construct: gene CTSS
The experiment in a line: recombinant enzyme, fluorogenic substrate Cbz-VVR-AMC, Morrison plot Ki.

The next assay has as its target T5, cathepsin B (Homo sapiens, UniProt P07858).
T5 construct: gene CTSB
The experiment in a line: recombinant enzyme, fluorogenic substrate Cbz-RR-AMC, Morrison plot Ki.

T2 sequence (O60911 114-334): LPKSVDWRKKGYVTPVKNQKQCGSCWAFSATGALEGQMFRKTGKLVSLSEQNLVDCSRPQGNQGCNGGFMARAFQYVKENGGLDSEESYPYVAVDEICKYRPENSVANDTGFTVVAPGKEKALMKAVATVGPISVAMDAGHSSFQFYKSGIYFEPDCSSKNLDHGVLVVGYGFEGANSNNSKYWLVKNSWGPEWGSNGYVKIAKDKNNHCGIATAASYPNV
T3 sequence (P07711 114-288): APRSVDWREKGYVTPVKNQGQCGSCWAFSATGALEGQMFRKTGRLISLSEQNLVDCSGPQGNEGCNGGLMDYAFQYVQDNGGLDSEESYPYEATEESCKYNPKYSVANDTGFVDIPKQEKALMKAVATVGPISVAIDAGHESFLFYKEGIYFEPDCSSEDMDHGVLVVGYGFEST
T3 sequence (P07711 292-333): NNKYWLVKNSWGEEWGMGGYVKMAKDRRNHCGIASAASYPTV
T4 sequence (P25774 115-331): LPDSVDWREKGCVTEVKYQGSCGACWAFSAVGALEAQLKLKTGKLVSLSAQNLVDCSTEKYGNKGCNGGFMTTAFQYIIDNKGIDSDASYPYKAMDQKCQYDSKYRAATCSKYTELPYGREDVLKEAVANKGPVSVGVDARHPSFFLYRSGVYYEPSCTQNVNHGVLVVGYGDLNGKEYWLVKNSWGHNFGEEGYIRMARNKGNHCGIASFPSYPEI

For `CS(=O)(=O)C[C@H](N[C@@H](c1ccc(F)cc1)C(F)(F)F)C(=O)NC1(C#N)CC1` [compound 6], the Ki at cathepsin K was 0.155 µM; on cathepsin V, 0.784 µM; at cathepsin L, 7.87 µM; at cathepsin S, 0.00271 µM; at cathepsin B it was 1.94 µM.

As a reminder, the Ki is the equilibrium dissociation constant of an inhibitor or competing ligand from its target.

(Values after publication PMC4839156, “A bioavailable cathepsin S nitrile inhibitor abrogates tumor development” (Molecular Cancer, 2016).)
